According to US8318950B2, “N-acyl amino acid derivatives, a method for the preparation thereof, a pharmaceutical composition and use thereof as anti-allergic, anti-inflammatory and hypolipidemic agents” (Otkrytoe Aktsionernoe Obschestvo-Otechestvennye Lekarstva, priority 2005, dated 2012):

Assays:
[1] = tested on: carrageenan-induced rat paw edema; assay: Carrageenan rat paw edema; format: in vivo; details: 1% gel applied on the paw three times; paw volume 4 hours post carrageenan
Protocol: The experiments were performed on white outbred male rats weighing 250 g. A total amount of animals per an experiment was 12.
The model of carrageenan-induced edema seconding to the method of Winter et al. was used (Winter et al. Studies of the mediators of the acute inflammatory response induced in rats in different sites by carrageenan and turpentine.//J. Phamacol. 1971. V. 104. P. 15-29). 0.1 ml 1% carrageenan solution (SERVA) was subplantarly injected into the right rat paw. The animals were placed into individual chambers. Gel (1%) comprising a substance tested was applied on the paw three times: immediately following carrageenan administration, ate 1 and 2 hours post administration. 4 hours post administration of carrageenan, paw volumes were measured using a plethysmograph (Ugo Basile) Therapeutic effect of the gel was assessed by inhibition degree of inflammatory reaction in comparison with the intact left paw of the given animal and rat paw reaction of the control (untreated) group inflammatory reaction inhibition expressed in percent, was calculated according to the formula: […]

[2] = tested on: guinea pig blood basophils; assay: In vitro ovalbumin (OA)-induced blood basophil degranulation of immunized guinea pig; format: cell-based; details: for inhibition at 1000 µM / inhibition at 100 µM / inhibition at 10 µM: Cavia porcellus, read-out: Complete degranulation inhibition (CDI)
Protocol: Leukocytes from guinea pig blood were isolated according to the Freemel's method [Immunologicheskiye Metody under edition of G. Frimel/Moscow., “Meditsina” publishers, 1987, p. 222 in the inventor's modification].
Guinea pigs of both sexes weighing from 600 to 800 g were used to conduct the test. The animals were once immunized with a mixture of 10 μg ovalbumin and 100 mg aluminum hydroxide per one animal according to Andersson [Anderson P. Antigen-induced bronchial anaphylaxis in actively sensitized guinea-pigs.//Allergy. 1980. Vol. 35. P. 63-71].
Under ester anesthesia, 15 ml blood were drawn from guinea pig heart. Double precipitation of cells using EDTA and a citrate-containing precipitating liquid was used to isolate basophils in the leukocyte suspension.
Blood was mixed with 5% EDTA.Na2 2H2O (“Sigma”) solution at 9:1 ratio and in 30 minutes it was subjected to mild centrifugation (for 12 minutes at 80 g). Supernatant was collected and centrifuged for 15 minutes at 500 g.
To the remaining cells, a citrate-containing precipitating liquid (3) was added at proportion 3:10 (it was thermostated at 37° C. for 30 minutes). A supernatant fraction enriched by leukocytes was centrifuged for 7 minutes at 100 g. To leukocyte precipitate, 0.85% NaCl solution was added and cellular concentration was brought to 30×10^3 μl.
Protocol of the in vitro basophil degranulation test [Spravochnil po klinicheskim laboratomym metodam issledovaniya (A reference book on clinical-laboratory examination methods)/Edited by E. A. Cost/Moscow, “Meditsina” publishers, 1975, p. 130].
For the test, a centrifuge tube (3 tubes per each sample) was filled with 300 μl cellular suspension, then salt solution of a tested compound (or a salt solution in the control of spontaneous and maximum degranulation) was added and pre-incubated at 37° C. for 15 minutes, then into each tube 300 μl 1% OA solution was added (in the control of spontaneous degranulation a salt solution in the same amount was added) and once more pre-incubated at 37° C. for 10 minutes. Functional leukocyte concentration was 10^4/μl. Samples (100 μl) were taken off from each tube into separate tubes to assess a complete basophil degranulation, and to the remained cells, a cooled salt solution was added (5 ml into each tube) to arrest degranulation reaction, then the tubes were centrifuged for 7 min at 100 g, and from precipitate, preparations for microscopy were prepared. The preparations were fixed and stained according to the method of Seder et al. [Seder R. A. et al. Mouse splenic and bone marrow cell populations that express high—affinity Fcε receptors and produce interleukin-4 are highly enriched in basophils.//Proc. Natl. Acad. USA, 1991, V. 88, P. 2835-2839].
In order to detect a specific basophil granulation, the dye 0.5% alcyanic blue (pH 1.0) was used, nuclei were additionally stained with safranin (0.1% solution in 1% acetic acid). The preparations were used to assess a total degranulation inhibition.
A total degranulation inhibition (DI) (%) was calculated according to the formula: […]
max—% of degranulated basophils at the maximum degranulation (OA)
spontaneous—% of degranulated basophils in spontaneous degranulation (control)
experimental—% of degranulated basophils following exposure to the tested compound.
Assessment of a Complete Basophil Degranulation
Samples selected following basophil degranulation test (100 μl each) were poured into tubes with the dye (0.5% alcyane blue, pH 1.0) at ratio 1:1. Staining was carried out at room temperature for not less than 50 min. Stained basophils were calculated using the Fooks-Rosenthal chamber. Inhibition of a complete basophil degranulation (ICD) was calculated according to the formula: ICD(%)=1−[(Mm(c)−Mm(exper.)]/Mm(c)−Mm(OA)]×100, wherein
M m (c)—mean (by three samples) basophil number in the spontaneous basophil degranulation test
M±m (OA)—mean (by three samples) basophil number in the maximum antigen-induced basophil degranulation test; […]

[3] = tested on: endogenous hypercholesterolemia in guinea pigs; assay: Model of endogenous hypercholesterolemia in guinea pigs (fat loading); format: in vivo, guinea pig; parameters: Serum total cholesterol / Serum total triglyceride levels: unit not given here; details: for Serum total cholesterol / Serum total triglyceride levels: fat loading + compound 500 μg/kg orally
Protocol: The study was carried out on male guinea pigs (Aguti line) weighing 304±25 g. The experiment lasted 31 days. The control group included 6 guinea pigs (intact animals). The compounds studied were administered from day 1 of the experiment (from day 1 of administering fat loading).
The animals of experimental groups received orally for 31 days a compound studied and fat loading. The compound studied at doses indicated below was administered in the form of an aqueous solution (0.5 ml per an animal); fat loading (a mixture of porcine fat and preliminary heated corn oil at 4:1 ratio by volume, at the rate of 5 ml/kg weight 0.5 h post administering the substance studied.
1) “control”—intact animals;
2) “fat”—animals that received fat loading only
3) “compound IV”—animals that received fat loading+compound IV at dose 500 μg/kg body weight;
4) “compound V”—animals that received fat loading+compound V at dose 500 μg/kg body weight.
Statistical processing was carried out using a mono-factorial analysis of variance.

[4] = tested on: antigen-induced bronchial spasm; details: oral and intratracheal route, 50 μg/kg; cited from earlier work
[5] = tested on: animals with atherogenic loading; details: WO 99/01103, similar biological experiment; cited from earlier work
[6] = tested on: delayed type hypersensitivity; details: doses 50 and 500 μg/kg; cited from earlier work
[7] = tested on: passive cutaneous anaphylaxis; details: in vivo; cited from earlier work
[8] = day 31, blood serum, 500 μg/kg orally (Table 24)
[9] = day 31, blood serum, 500 μg/kg orally (Table 25)

Question: With COC(=O)[C@H](Cc1c[nH]cn1)NC(=O)CCC(=O)O [VI, N^α-succinyl-L-histidine methyl ester] as the compound, how does the inhibition of edema [1] read?
Answer: Its inhibition of edema is 44%.

Question: With COC(=O)[C@H](Cc1c[nH]c2ccccc12)NC(=O)CCCC(=O)O [XIII, N^α-glutaryl-L-tryptophane methyl ester] as the compound, how does the inhibition of edema [1] read?
Answer: Its inhibition of edema is 40%.

Question: Which “Number of completely degranulated basophils” value (shortened to “Number”) ([2]; 10^−3 M) does the source give for O=C(O)CCC(=O)N[C@@H](Cc1c[nH]cn1)C(=O)O [Compound V, N^α-succinyl-L-histidine] here?
Answer: The value was 35.3 ± 7.29%.

Question: And the “Number” value ([2]; 10^−4 M)?
Answer: Its value is 31.2 ± 6.8%.

Question: And the “Number” value ([2]; 10^−5 M)?
Answer: The value was 24.6 ± 10.38%.

Question: And the inhibition at 1000 µM ([2]; 10^−3 M)?
Answer: The inhibition at 1000 µM was 10.6 ± 7.6%.

Question: And the inhibition at 100 µM ([2]; 10^−4 M)?
Answer: Its inhibition at 100 µM is 18.9 ± 11.8%.

Question: And the inhibition at 10 µM ([2]; 10^−5 M)?
Answer: The inhibition at 10 µM was 44 ± 11.3%.

Question: And the Serum total cholesterol ([3]; Day 28)?
Answer: The Serum total cholesterol was 52.9 ± 6.5.

Question: And the “Serum total triglyceride levels” value ([3]; Day 28)?
Answer: Its value is 62.3 ± 5.4.

Question: And the Serum total cholesterol ([3]; Day 31)?
Answer: The Serum total cholesterol was 46.3 ± 4.1.

Question: What about the “Serum total triglyceride levels” value ([3]; Day 31) of the same compound?
Answer: Its value is 56.0 ± 6.1.

Question: What about the “lowered LDL cholesterol” value ([3]; by day 31 of the experiment) of the same compound?
Answer: The value was 38%.

Question: What about the “lowered total cholesterol level” value ([3]; by day 31 of the experiment) of the same compound?
Answer: Its value is 37.8%.

Question: And the Cholesterol, LDL [3, 8]?
Answer: The Cholesterol, LDL was 41.9 ± 2.7 mg/100 ml.

Question: What about the Cholesterol, Total [3, 8] of the same compound?
Answer: Its Cholesterol, Total is 46.3 ± 4.1 mg/100 ml.

Question: And the Cholesterol, VLDL [3, 8]?
Answer: Its Cholesterol, VLDL is 2.1 ± 0.4 mg/100 ml.

Question: What about the Triglycerides, LDL [3, 9] of the same compound?
Answer: The Triglycerides, LDL was 23.1 ± 1.9 mg/100 ml.

Question: And the Triglycerides, Total [3, 9]?
Answer: Its Triglycerides, Total is 56 ± 6.1 mg/100 ml.

Question: And the Triglycerides, VLDL [3, 9]?
Answer: The Triglycerides, VLDL was 22.5 ± 4.4 mg/100 ml.

Question: Which “Number” value ([2]; 10^−3 M) does the source give for C[C@]12CCC(=O)C=C1CC[C@@H]1[C@@H]2[C@@H](O)C[C@@]2(C)[C@H]1CC[C@]2(O)C(=O)CO [Hydrocortisone, reference compound] here?
Answer: Its value is 10.0 ± 0.7%.

Question: What about the “Number” value ([2]; 10^−4 M) of the same compound?
Answer: The value was 17.3 ± 0.9%.

Question: And the “Number” value ([2]; 10^−5 M)?
Answer: The value was 20.0 ± 1.3%.

Question: What about the inhibition at 1000 µM ([2]; 10^−3 M) of the same compound?
Answer: Its inhibition at 1000 µM is 71 ± 1.6%.

Question: What about the inhibition at 100 µM ([2]; 10^−4 M) of the same compound?
Answer: Its inhibition at 100 µM is 48 ± 0.8%.

Question: And the inhibition at 10 µM ([2]; 10^−5 M)?
Answer: Its inhibition at 10 µM is 40 ± 0.6%.

Question: With O=C(O)CCCC(=O)NCCc1cnc[nH]1 [Glutaryl histamine, glutaryl histamine, reference compound] as the compound, how does the “Complete degranulation inhibition (CDI)” value ([2]; 10^−3 M) read?
Answer: Its value is 9.3 ± 5.5%.

Question: And the “Number” value ([2]; 10^−3 M)?
Answer: The value was 31.6 ± 6.33%.

Question: What about the “Complete degranulation inhibition (CDI)” value ([2]; 10^−4 M) of the same compound?
Answer: Its value is 24.1 ± 1.1%.

Question: And the “Number” value ([2]; 10^−4 M)?
Answer: The value was 25.3 ± 3.38%.

Question: What about the “Complete degranulation inhibition (CDI)” value ([2]; 10^−5 M) of the same compound?
Answer: The value was 0%.

Question: And the “Number” value ([2]; 10^−5 M)?
Answer: Its value is 29.8 ± 6.73%.

Question: What about the “Decrease in bronchial spasm value as compared to the control” value [4] of the same compound?
Answer: Its value is greater than 50%.

Question: And the “lowering total cholesterol level” value [5]?
Answer: Its value is 9%.

Question: And the “intensity of delayed type hypersensitivity” value [6]?
Answer: Its value is “significantly lower intensity”.

Question: And the “manifestations of passive cutaneous anaphylaxis” value [7]?
Answer: The value was “capable of lowering manifestations”.

Question: For O=C(O)Cc1ccccc1Nc1c(Cl)cccc1Cl [diclofenac, reference compound], which inhibition of edema [1] is on record?
Answer: Its inhibition of edema is 62%.
